The source of these data is ChEMBL document CHEMBL1201862, “PubChem BioAssay data set” (2004).

Assay in all cases: inhibition of tumour cell growth, NCI panel, 48 h
Test [1] deals with 786-0.
Test [2] deals with ACHN.
Test [3] concerns BT-549.
For test [4], the system named is EKVX.
For test [5], the system named is HCC 2998.
Test [6] concerns HCT-116.
Test [7] relates to IGROV-1.
Test [8] concerns MDA-N.
Test [9] relates to MOLT-4.
Test [10] has as its system Malme-3M.
Test [11] deals with NCI-H226.
Test [12] deals with NCI-H460.
The test system of test [13] is SK-MEL-2.
The test system of test [14] is SN12C.
Test [15] deals with SNB-19.
Test [16] concerns SR.
For test [17], the system named is T47D.
For test [18], the system named is UO-31.
Test [19] concerns SK-OV-3.
Test [20] has as its system UACC-62.

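Tested at 5 concentrations; 48 h exposure; 96-well plates; endpoints linearly interpolated, else capped at highest concentration. At the GI50, growth is halved.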 Calls of active or inactive are those of the source. Rule as the data show it: active = GI50 up to about 1.1 µM and inactive = higher.

On to `O=C(Nc1cc2cc([N+](=O)[O-])ccc2oc1=O)c1cccs1`, for which the GI50 in test [1] is 89.5 µM (inactive); in [2] it was 49 µM (inactive); in [3] it was 69.2 µM (inactive); in [4], 61.7 µM (inactive); in test [5] it was 48.3 µM (inactive); in test [6], 25.4 µM (inactive). For the same compound, the GI50 was 34.4 µM (inactive) in test [7]; 46.1 µM (inactive) in [8]; 25.3 µM (inactive) in test [9]; > 100 µM (inactive) in [10]; 44 µM (inactive) in test [11]; 51.2 µM (inactive) in test [12]. Moreover, the GI50 in [13] is 72.9 µM (inactive); in test [14], 40.5 µM (inactive); in [15] it was > 100 µM (inactive); in test [16], 35 µM (inactive); in test [17], 38.5 µM (inactive); in [18] it was 60.4 µM (inactive).

For the compound `Cc1cc(S(=O)(=O)Nc2nc(N)n[nH]2)c(SCC(=O)O)cc1Cl`, the GI50 in test [1], in [2], in test [3], in [4], in [5] and in test [6] was > 10 µM (inactive) each time. The GI50 in test [7], in test [8], in test [9], in test [10], in test [11] and in test [12] was > 10 µM (inactive) in each case. Besides, the GI50 in [13], in [19], in test [14], in [15], in test [16] and in test [17] was > 10 µM (inactive) each time. The GI50 in test [18] is > 10 µM (inactive).

For the compound `CC1=CC(=O)/C(=C/NC(=S)C(N)=S)C(=O)O1`, the GI50 in [1], in [2], in test [3], in test [4], in [5] and in test [6] was > 100 µM (inactive) throughout. Further, the GI50 in test [7] is > 100 µM (inactive); in test [8] it was > 100 µM (inactive); in test [9], 16 µM (inactive); in test [11], > 100 µM (inactive); in test [12] it was > 100 µM (inactive); in [13] it was > 100 µM (inactive). Further, the GI50 was > 100 µM (inactive) in [19]; > 100 µM (inactive) in test [14]; > 100 µM (inactive) in test [15]; 47.2 µM (inactive) in test [16]; > 100 µM (inactive) in test [17]; > 100 µM (inactive) in test [20]. In addition, the GI50 in test [18] was > 100 µM (inactive).

As for `O=S1(=O)CCC2=CC(C(F)(F)F)=CC(C(F)(F)F)=CN21`, the GI50 was 0.415 µM (active) in [1]; 0.415 µM (active) in [2]; 2.43 µM (inactive) in [3]; 2.93 µM (inactive) in [4]; 2.07 µM (inactive) in test [5]; 0.245 µM (active) in [6]. The GI50 in [7] was 1.84 µM (inactive); in test [8], 0.792 µM (active); in test [9], 0.243 µM (active); in test [10] it was 0.733 µM (active); in test [11], 2.08 µM (inactive); in test [12], 2.59 µM (inactive). In addition, the GI50 is 1.82 µM (inactive) in test [13]; 3.86 µM (inactive) in test [19]; 1.55 µM (inactive) in test [14]; 2.47 µM (inactive) in test [15]; 0.216 µM (active) in test [16]; 0.167 µM (active) in test [17]. Also, the GI50 in test [20] was 1.64 µM (inactive); in [18] it was 0.805 µM (active).

On to `CC1(C)C(=O)N(O)C(C)(C)N1O`, for which the GI50 in [1], in test [2], in test [3], in test [4], in test [5] and in test [6] was > 10 µM (inactive) each time. The GI50 in test [7], in [8], in test [9], in [10], in test [11] and in test [12] was > 10 µM (inactive) each time. In addition, the GI50 in [13], in test [19], in test [14], in [15], in test [16] and in test [17] was > 10 µM (inactive) each time. Further, the GI50 in [20] was > 10 µM (inactive).

Take `CNC(=O)Nc1cc2c3c(c1)CCCN3CCC2`: the GI50 in [1], in [2], in test [3], in test [4], in test [5] and in test [6] was > 10 µM (inactive) each time. For the same compound, the GI50 in test [7], in test [8], in test [10], in test [11], in test [12] and in test [13] was > 10 µM (inactive) in each case. Besides, the GI50 in test [19], in test [14], in test [15], in [16], in [17] and in test [20] was > 10 µM (inactive) in each case.

With `Cc1ccc(S(=O)(=O)N2C3C=CC(C3)[C@@H]2C(Cl)(Cl)Cl)cc1` (stereo partly drawn), the GI50 in [1] was 10 µM (inactive); in test [2], 14.3 µM (inactive); in test [3], 16.4 µM (inactive); in [4], 5.22 µM (inactive); in [5], 7.31 µM (inactive); in test [6], 10.8 µM (inactive). Besides, the GI50 in test [7] is 19.6 µM (inactive); in test [8], 35 µM (inactive); in test [9], 19.3 µM (inactive); in [10] it was 18.9 µM (inactive); in [11], 15 µM (inactive); in test [12], 6.75 µM (inactive). Further, the GI50 is 7.36 µM (inactive) in test [13]; 24.2 µM (inactive) in test [14]; 17.9 µM (inactive) in test [15]; 14.4 µM (inactive) in test [16]; 10.7 µM (inactive) in test [17]; 14.6 µM (inactive) in test [20]. Also, the GI50 in test [18] was 15 µM (inactive).

As to `CN(C)c1cc2ccccc2oc1=O`, the GI50 in test [1], in test [2], in test [3], in [4], in test [5] and in test [6] was > 100 µM (inactive) in each case. Also, the GI50 in test [7], in [8], in [9], in test [10], in test [11] and in test [12] was > 100 µM (inactive) throughout. Further, the GI50 in test [13], in [14], in test [15], in test [16], in test [17] and in test [20] was > 100 µM (inactive) each time. Moreover, in test [18], the GI50 is > 100 µM (inactive).

As to `Clc1cccc2[nH]ncc12`, the GI50 was > 100 µM (inactive) in test [1]; > 100 µM (inactive) in test [2]; 36.1 µM (inactive) in test [3]; 32.4 µM (inactive) in [4]; > 100 µM (inactive) in test [5]; 66.7 µM (inactive) in [6]. Moreover, the GI50 in test [7], in test [8], in [9], in test [11], in [12] and in test [13] was > 100 µM (inactive) throughout. Further, the GI50 is > 100 µM (inactive) in test [19]; > 100 µM (inactive) in test [14]; > 100 µM (inactive) in [15]; 30.6 µM (inactive) in test [16]; 16.6 µM (inactive) in test [17]; > 100 µM (inactive) in test [20].

For `C/C=C1/CN2[C@@H](C3=C[C@@H]4[C@@H]5N(C3=O)c3ccccc3[C@@]53CCN5C/C(=C/C)[C@@H]4C[C@H]53)C[C@@]34c5ccccc5N5C(=O)CC=C([C@H]1C[C@H]23)[C@H]54` [ISOSUNGUCINE], the GI50 in test [1] is 2.16 µM (inactive); in test [2], 5.81 µM (inactive); in [3], 8.34 µM (inactive); in [4], 5.66 µM (inactive); in test [5] it was 2.43 µM (inactive); in test [6] it was 2.94 µM (inactive). For the same compound, the GI50 was 3.84 µM (inactive) in test [8]; 1.46 µM (inactive) in test [9]; 6.04 µM (inactive) in test [10]; 7.83 µM (inactive) in test [11]; 6.62 µM (inactive) in [12]; 5.32 µM (inactive) in test [13]. For the same compound, the GI50 is 8.77 µM (inactive) in test [19]; 3.01 µM (inactive) in test [14]; 7.52 µM (inactive) in [15]; 1.19 µM (inactive) in test [16]; 9.93 µM (inactive) in test [17]; 2.86 µM (inactive) in test [20]. The GI50 in test [18] was 2.32 µM (inactive).
